Columns and labels:
Assay type in all cases: functional, cell-based
HCT-116 = test: Growth inhibition of human HCT116 cells incubated for 48 hrs by sulforhodamine B assay; details: HCT-116, 48 h
MDA-MB-435 = test: Growth inhibition of human MDA-MB-435 cells incubated for 48 hrs by sulforhodamine B assay; details: MDA-MB-435, 48 h
SK-MEL-2 = test: Growth inhibition of human SK-MEL-2 cells incubated for 48 hrs by sulforhodamine B assay; details: SK-MEL-2, 48 h
SK-MEL-5 = test: Growth inhibition of human SK-MEL-5 cells incubated for 48 hrs by sulforhodamine B assay; details: SK-MEL-5, 48 h
SF-295 = test: Growth inhibition of human SF295 cells incubated for 48 hrs by sulforhodamine B assay; details: SF-295, 48 h
PC-3 = test: Growth inhibition of human PC3 cells incubated for 48 hrs by sulforhodamine B assay; details: PC-3, 48 h
UACC-257 = test: Growth inhibition of human UACC257 cells incubated for 48 hrs by sulforhodamine B assay; details: UACC-257, 48 h
MDA-MB-468 = test: Growth inhibition of human MDA-MB-468 cells incubated for 48 hrs by sulforhodamine B assay; details: MDA-MB-468, 48 h
HOP-92 = test: Growth inhibition of human HOP92 cells incubated for 48 hrs by sulforhodamine B assay; details: HOP-92, 48 h
HOP-62 = test: Growth inhibition of human HOP62 cells incubated for 48 hrs by sulforhodamine B assay; details: HOP-62, 48 h
ACHN = test: Growth inhibition of human ACHN cells incubated for 48 hrs by sulforhodamine B assay; details: read-out: TGI
TK-10 = test: Growth inhibition of human TK10 cells incubated for 48 hrs by sulforhodamine B assay; details: TK-10, 48 h
NCI-H522 = test: Growth inhibition of human NCI-H522 cells incubated for 48 hrs by sulforhodamine B assay; details: NCI-H522, 48 h
NCI/ADR-RES = test: Growth inhibition of human NCI/ADR-RES cells incubated for 48 hrs by sulforhodamine B assay; details: read-out: TGI
M14 = test: Growth inhibition of human M14 cells incubated for 48 hrs by sulforhodamine B assay; details: M14, 48 h
NCI-H23 = test: Growth inhibition of human NCI-H23 cells incubated for 48 hrs by sulforhodamine B assay; details: NCI-H23, 48 h
IGROV-1 = test: Growth inhibition of human IGROV1 cells incubated for 48 hrs by sulforhodamine B assay; details: IGROV-1, 48 h, read-out: TGI
NCI-H226 = test: Growth inhibition of human NCI-H226 cells incubated for 48 hrs by sulforhodamine B assay; details: NCI-H226, 48 h
T47D = test: Growth inhibition of human T47D cells incubated for 48 hrs by sulforhodamine B assay
KM12 = test: Growth inhibition of human KM12 cells incubated for 48 hrs by sulforhodamine B assay; details: KM12, 48 h
COLO 205 = test: Growth inhibition of human COLO205 cells incubated for 48 hrs by sulforhodamine B assay; details: COLO 205, 48 h
RPMI-8226 = test: Growth inhibition of human RPMI8226 cells incubated for 48 hrs by sulforhodamine B assay; details: RPMI-8226, 48 h
MCF7 = test: Growth inhibition of human MCF7 cells incubated for 48 hrs by sulforhodamine B assay; details: MCF7, 48 h, read-out: TGI
Malme-3M = test: Growth inhibition of human MALME-3M cells incubated for 48 hrs by sulforhodamine B assay
SF-539 = test: Growth inhibition of human SF539 cells incubated for 48 hrs by sulforhodamine B assay; details: SF-539, 48 h
MDA-MB-231 = test: Growth inhibition of human MDA-MB-231 cells incubated for 48 hrs by sulforhodamine B assay; details: MDA-MB-231, 48 h
MOLT-4 = test: Growth inhibition of human MOLT4 cells incubated for 48 hrs by sulforhodamine B assay; details: MOLT-4, 48 h, read-out: TGI
CCRF-CEM = test: Growth inhibition of human CCRF-CEM cells incubated for 48 hrs by sulforhodamine B assay
HL-60(TB) = test: Growth inhibition of human HL-60(TB) cells incubated for 48 hrs by sulforhodamine B assay; details: HL-60, 48 h
UACC-62 = test: Growth inhibition of human UACC62 cells incubated for 48 hrs by sulforhodamine B assay; details: UACC-62, 48 h
HT-29 = test: Growth inhibition of human HT-29 cells incubated for 48 hrs by sulforhodamine B assay; details: HT-29, 48 h

CNC(=O)c1cc(Oc2ccc(NC(=O)Nc3ccc(Cl)c(C(F)(F)F)c3)cc2)ccn1 [SORAFENIB]
IC50 (HCT-116): 1580 nM | IC50 (MDA-MB-435): 1580 nM | IC50 (SK-MEL-2): 2000 nM | IC50 (SK-MEL-5): 1580 nM | IC50 (SF-295): 1580 nM | IC50 (PC-3): 2000 nM | IC50 (UACC-257): 2000 nM | TGI (UACC-257; read-out: TGI): 5010 nM | IC50 (MDA-MB-468): 2000 nM | IC50 (HOP-92): 1580 nM | TGI (HOP-92; read-out: TGI): 5010 nM | IC50 (HOP-62): 2000 nM | TGI (ACHN): 10000 nM | IC50 (TK-10): 3980 nM | TGI (TK-10; read-out: TGI): 10000 nM | IC50 (NCI-H522): 2000 nM | TGI (NCI/ADR-RES): 7940 nM | IC50 (M14): 2000 nM | IC50 (NCI-H23): 2000 nM | TGI (NCI-H23; read-out: TGI): 5010 nM | TGI (IGROV-1): 10000 nM | IC50 (NCI-H226): 2000 nM | IC50 (T47D): 1580 nM | IC50 (KM12): 1580 nM | IC50 (COLO 205): 2000 nM | IC50 (RPMI-8226): 1580 nM | TGI (MCF7): 7940 nM | IC50 (Malme-3M): 2000 nM | IC50 (SF-539): 1580 nM | IC50 (MDA-MB-231): 1260 nM | TGI (MOLT-4): 100000 nM | IC50 (CCRF-CEM): 2000 nM | IC50 (HL-60(TB)): 1580 nM | TGI (HL-60(TB); read-out: TGI): 100000 nM | IC50 (UACC-62): 1580 nM | IC50 (HT-29): 2000 nM
